{
  "source": "patent US20120276245A1",
  "about": "“METHOD FOR IMPROVED FERMENTATION” (STICHTING TOP INSTITUTE FOOD AND NUTRITION, priority 2009, published 2012)",
  "key": {"S. thermophilus": {"tested_on": "S. thermophilus", "assay": "Intervention study: acidification and growth of S. thermophilus mono-culture in reconstituted skim milk", "type": "cell-based, Streptococcus thermophilus", "details": "for Acidification by S. thermophilus: mono-culture in reconstituted skim milk, 37° C., 19 h, compounds listed in decreasing order of stimulation: formic acid, pyruvic acid, folic acid, Tween-20; for Growth of S. thermophilus in monoculture: in the absence of Lactobacillus bulgaricus", "protocol": "(§1) Cultures of S. thermophilus, L. bulgaricus and a mixed culture were prepared in 0.8 volume reconstituted skim milk with 0.2 volume of a solution with compounds: Na-pyruvate (1.82 mM), Na-formate (1.47 mM), folic acid (1 mM), nucleobases (10 mg/L each) (all representing purine and pyrimidine metabolism), Tween-20 (105.9 μM) (as a supply of lauric acid), Tween-80 (110 mg/L) (as a supply of oleic acid). Here after these compounds are referred to as ‘interaction compounds’. The LCFAs oleic acid and lauric acid are poorly soluble and therefore we used Tween-20 and Tween-80. The effect of each of all interaction compounds on growth and acidification was tested in a single addition and a single omission strategy. Paired comparisons were made of a single compound versus nothing added (neg. control), and of all compounds minus one added versus all (pos. control). Acidification of quadruplicate cultures of 250 μL, was measured at 37° C. for 19 h in hydroplates (PreSens—Precision Sensing GmbH, Germany) where after CFU counts were determined using a rapid miniplating method (36). Significant differences in acidification were determined by comparing the maximal acidification rate using a two-tailed Students t-test (p=0.05). Similarly, significant differences were calculated between the final pH values and between the colony-forming units. A higher cell count, lower final pH, higher acidification rate and a shorter time to reach this rate are considered stimulatory effect of the intervention compared to the control."}, "L. bulgaricus": {"tested_on": "L. bulgaricus", "assay": "Intervention study: acidification of L. bulgaricus mono-culture in reconstituted skim milk", "type": "cell-based, Lactobacillus delbrueckii subsp. bulgaricus", "details": "37° C., 19 h", "protocol": "as §1"}, "[1]": {"tested_on": "mixed culture of S. thermophilus and L. bulgaricus", "assay": "Intervention study: acidification of mixed culture in reconstituted skim milk", "type": "cell-based", "details": "37° C., 19 h, stimulatory effects less than with the mono-cultures", "protocol": "as §1, with “A higher cell count, lower final pH, higher acidification rate and a shorter time to reach this rate are considered stimulatory effect of the intervention compared to the control.” left out"}, "[2]": {"tested_on": "genes involved in biosynthesis of purines and folic acid cycling", "details": "formic acid supplied, both species", "from_the_text": "(§2) Microarrays were spotted on the Agilent 8x 15K platform (Agilent Technologies, Santa Clara, Calif., USA) with a custom probe design (AMADID 015342) comprising the sequences of both S. thermophilus CNRZ1066 (released by NCBI, genbank accession no. NC 006449) and L. bulgaricus ATCC BAA-365 (released by JGI, genbank accession no. NC 008529). The probes were designed with the objective to minimize cross-hybridization: the probes were species-specific, i.e. all probes were designed as 60-mers with a target score of 100% to the target gene, allowing no binding of cDNA that is 1 base different (mismatch) if the correct hybridization temperature (65° C.) and washing temperature (37° C.) are used. In total there are 5438 probes representing 1899 genes of S. thermophilus and 4028 spots representing 1709 genes of L. bulgaricus. Most genes are represented by 3 probes or more. Only 55 genes in S. thermophilus and 77 in L. bulgaricus are represented by one probe and only 5 genes of S. thermophilus and 31 genes of L. bulgaricus are lacking. The selectivity of strain specific gene detection was tested by a series of transcriptome profiling experiments of samples from MRS-grown mono-cultures of both strains. […] They were excluded from further analysis.\n(§3) The high protein content of milk and the polysaccharide production by the grown microorganisms make cell harvesting problematic. Furthermore, sampling and quenching need to be carried out rapidly in order to prevent the introduction of technical errors in a transcriptomics experiment. Several procedures have been developed to “clear” the milk to enable cell harvest by centrifugation without the contamination with milk solids. However, milk cleaning procedures are time consuming and require drastic changes in pH and the addition of large quantities of sodium citrate."}, "[3]": {"tested_on": "pfl (pyruvate formate lyase gene)", "details": "mixed culture supplemented with formic acid", "from_the_text": "as §2, §3"}, "[4]": {"tested_on": "pflA (pyruvate formate lyase gene)", "details": "mixed culture supplemented with formic acid", "from_the_text": "as §2, §3"}},
  "note": "Like-named read-outs stand apart in the source and are kept apart here.",
  "data": [
    {"compound": "Nc1nc2ncc(CNc3ccc(C(=O)N[C@@H](CCC(=O)O)C(=O)O)cc3)nc2c(=O)[nH]1", "note": "[folic acid]", "values": [
      {"measurement": "Acidification by S. thermophilus", "setting": "S. thermophilus", "result": "stimulated"},
      {"measurement": "Growth of S. thermophilus in monoculture", "setting": "S. thermophilus", "result": "stimulate growth"},
      {"measurement": "L. bulgaricus acidification", "setting": "L. bulgaricus", "result": "small stimulatory effect"}
    ]},
    {"compound": "O=CO", "note": "[formic acid]", "values": [
      {"measurement": "Acidification by S. thermophilus", "setting": "S. thermophilus", "result": "stimulated"},
      {"measurement": "L. bulgaricus acidification", "setting": "L. bulgaricus", "result": "stimulated the most"},
      {"measurement": "Acidification of the mixed cultures", "setting": "[1]", "result": "still stimulated"},
      {"measurement": "Expression of genes involved in biosynthesis of purines and folic acid cycling", "setting": "[2]; early (second) exponential phase", "result": "lower"},
      {"measurement": "Expression of genes involved in biosynthesis of purines and folic acid cycling", "setting": "[2]; mid exponential phase", "result": "higher"},
      {"measurement": "Expression of pfl down-regulated when formic acid was supplied", "setting": "[3]", "result": 3.8, "unit": "fold"},
      {"measurement": "Expression of pflA down-regulated when formic acid was supplied", "setting": "[4]", "result": 5.7, "unit": "fold"}
    ]},
    {"compound": "CC(=O)C(=O)O", "note": "[pyruvic acid]", "values": [
      {"measurement": "Acidification by S. thermophilus", "setting": "S. thermophilus", "result": "stimulated"},
      {"measurement": "Growth of S. thermophilus in monoculture", "setting": "S. thermophilus", "result": "stimulate growth"},
      {"measurement": "L. bulgaricus acidification", "setting": "L. bulgaricus", "result": "small stimulatory effect"},
      {"measurement": "Acidification of the mixed cultures", "setting": "[1]", "result": "still stimulated"}
    ]},
    {"compound": "Tween-20", "values": [
      {"measurement": "Acidification by S. thermophilus", "setting": "S. thermophilus", "result": "stimulated"},
      {"measurement": "Growth of S. thermophilus in monoculture", "setting": "S. thermophilus", "result": "stimulate growth"},
      {"measurement": "L. bulgaricus acidification", "setting": "L. bulgaricus", "result": "small stimulatory effect"}
    ]},
    {"compound": "Tween-80", "values": [
      {"measurement": "L. bulgaricus acidification", "setting": "L. bulgaricus", "result": "small stimulatory effect"}
    ]}
  ]
}
